Data reported in ChEMBL document CHEMBL1221184, “Identifying off-target effects and hidden phenotypes of drugs in human cells” (Nat Chem Biol, 2006).
The source made the active and inactive calls. The calls are words filed in the database; no cut-off is given here. Non-standard residues stand in square brackets, D forms with d. Residues, ends and D or L forms follow the SMILES beside them. *: point of attachment. Nle = CCCC[C@H](N)C(=O)O; Cbz = O=C(OCc1ccccc1)*

Legend:
PC-3 [1] = test: Antiproliferative activity against human PC3 cells at 1.5 uM after 120 hrs by MTT assay relative to DMSO; assay type: functional
PC-3 [2] = test: Antiproliferative activity against human PC3 cells at 50 ug/ml after 120 hrs by MTT assay relative to DMSO; assay type: functional
HEK293 [3] = test: Inhibition of HSP90 expressed in HEK293 cells assessed as effect on Akt1:p27 interaction complexes by EYFP and/or YFP Venus fragment based reporter gene assay; assay type: cell-based
PC-3 [4] = test: Antiproliferative activity against human PC3 cells at 2.5 uM after 120 hrs by MTT assay relative to DMSO; assay type: functional
PC-3 [5] = test: Antiproliferative activity against human PC3 cells at 200 nM after 120 hrs by MTT assay relative to DMSO; assay type: functional
PC-3 [6] = test: Antiproliferative activity against human PC3 cells at 15 uM after 120 hrs by MTT assay relative to DMSO; assay type: functional
PC-3 [7] = test: Antiproliferative activity against human PC3 cells at 30 uM after 120 hrs by MTT assay relative to DMSO; assay type: functional
[8] = target: Transcription factor Jun (Homo sapiens) (UniProt P05412); test: Activation of c-Jun expressed in HEK293 cells assessed as induction of protein interaction with Pin1 by EYFP based reporter gene assay; assay type: cell-based
Transcription factor Jun (Homo sapiens), sequence (P05412 whole entry, the tested form may be a part): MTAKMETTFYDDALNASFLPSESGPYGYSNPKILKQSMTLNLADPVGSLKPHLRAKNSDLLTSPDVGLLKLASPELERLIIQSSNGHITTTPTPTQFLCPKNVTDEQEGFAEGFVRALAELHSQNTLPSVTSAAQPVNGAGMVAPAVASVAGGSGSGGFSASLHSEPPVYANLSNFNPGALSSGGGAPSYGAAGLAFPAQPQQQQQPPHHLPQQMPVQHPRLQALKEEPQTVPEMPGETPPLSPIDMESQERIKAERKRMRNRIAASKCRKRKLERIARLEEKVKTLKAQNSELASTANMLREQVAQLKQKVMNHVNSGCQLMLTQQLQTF

[9] = target: Cyclin-dependent kinase 1 (Homo sapiens) (UniProt P06493); test: Effect on Cdc2 expressed in HEK293 cells assessed as effect on Cdc2:Cdc25C interaction complexes in presence of camptothecin by EYFP and/or YFP Venus fragment based reporter gene assay; assay type: cell-based
Cyclin-dependent kinase 1 (Homo sapiens), sequence (P06493 whole entry, looked up, the tested form may be a part): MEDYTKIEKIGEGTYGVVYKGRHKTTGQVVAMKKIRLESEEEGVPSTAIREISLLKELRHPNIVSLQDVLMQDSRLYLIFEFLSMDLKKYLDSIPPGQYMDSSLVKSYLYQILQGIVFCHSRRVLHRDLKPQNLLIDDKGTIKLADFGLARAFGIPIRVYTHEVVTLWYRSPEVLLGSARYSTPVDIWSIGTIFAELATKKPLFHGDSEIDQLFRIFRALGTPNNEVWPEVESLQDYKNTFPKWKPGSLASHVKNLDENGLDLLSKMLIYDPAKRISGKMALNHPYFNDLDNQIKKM

[10] = target: Cyclin-dependent kinase 1 (Homo sapiens) (UniProt P06493); test: Effect on Cdc2 expressed in HEK293 cells assessed as effect on Cdc2:Cdc25A interaction complexes in presence of camptothecin by EYFP and/or YFP Venus fragment based reporter gene assay; assay type: cell-based
[11] = target: Transcription factor Jun (Homo sapiens) (UniProt P05412); test: Inhibition of c-Jun expressed in HEK293 cells assessed as induction of protein interaction in presence of camptothecin with Pin1 by EYFP based reporter gene assay; assay type: cell-based
Cofilin-1 (Homo sapiens) [12] = target: Cofilin-1 (Homo sapiens) (UniProt P23528); test: Effect on cofilin1 expressed in HEK293 cells assessed as effect on cofilin1; Limk2 interaction complexes in presence of camptothecin by EYFP and/or YFP Venus fragment based reporter gene assay; assay type: cell-based
Cofilin-1 (Homo sapiens), sequence (P23528 whole entry, the tested form may be a part): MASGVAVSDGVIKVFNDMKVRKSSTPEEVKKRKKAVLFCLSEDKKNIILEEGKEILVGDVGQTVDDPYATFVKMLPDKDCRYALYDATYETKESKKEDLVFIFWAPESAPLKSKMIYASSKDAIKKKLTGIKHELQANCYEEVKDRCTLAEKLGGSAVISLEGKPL

[13] = target: Cyclin-dependent kinase 1 (Homo sapiens) (UniProt P06493); test: Inhibition of Cdc2 expressed in HEK293 cells assessed as effect on Cdc2:Cdc25C interaction complexes in presence of camptothecin by EYFP and/or YFP Venus fragment based reporter gene assay; assay type: cell-based
PC-3 [14] = test: Antiproliferative activity against human PC3 cells at 300 nM after 120 hrs by MTT assay relative to DMSO; assay type: functional
PC-3 [15] = test: Antiproliferative activity against human PC3 cells at 250 nM after 120 hrs by MTT assay relative to DMSO; assay type: functional
PC-3 [16] = test: Antiproliferative activity against human PC3 cells at 25 uM after 120 hrs by MTT assay relative to DMSO; assay type: functional
HEK293 [17] = test: Inhibition of proteasome expressed in HEK293 cells assessed as effect on CyclinD1-CDK4 interaction complexes by EYFP and/or YFP Venus fragment based reporter gene assay
HEK293 [18] = test: Inhibition of proteasome expressed in HEK293 cells assessed as effect on E6:E6AP interaction complexes by EYFP and/or YFP Venus fragment based reporter gene assay
HEK293 [19] = test: Inhibition of proteasome expressed in HEK293 cells assessed as effect on Pin1-Jun interaction complexes by EYFP and/or YFP Venus fragment based reporter gene assay
HEK293 [20] = test: Inhibition of proteasome expressed in HEK293 cells assessed as effect on p53-Chk1 interaction complexes by EYFP and/or YFP Venus fragment based reporter gene assay
HEK293 [21] = test: Inhibition of proteasome expressed in HEK293 cells assessed as effect on p53-p53 interaction complexes by EYFP and/or YFP Venus fragment based reporter gene assay
Cofilin-1 (Homo sapiens) [22] = target: Cofilin-1 (Homo sapiens) (UniProt P23528); test: Effect on cofilin1 expressed in HEK293 cells assessed as effect on cofilin1; Limk2 interaction complexes by EYFP and/or YFP Venus fragment based reporter gene assay; assay type: cell-based
PC-3 [23] = test: Antiproliferative activity against human PC3 cells at 10 uM after 120 hrs by MTT assay relative to DMSO; assay type: functional
Cofilin-1 (Homo sapiens) [24] = target: Cofilin-1 (Homo sapiens) (UniProt P23528); test: Inhibition of cofilin1 expressed in HEK293 cells assessed as effect on cofilin1; Limk2 interaction complexes by EYFP and/or YFP Venus fragment based reporter gene assay; assay type: cell-based
PC-3 [25] = test: Antiproliferative activity against human PC3 cells at 12.5 uM after 120 hrs by MTT assay relative to DMSO; assay type: functional
PC-3 [26] = test: Antiproliferative activity against human PC3 cells at 5 uM after 120 hrs by MTT assay relative to DMSO; assay type: functional
PC-3 [27] = test: Antiproliferative activity against human PC3 cells at 3 uM after 120 hrs by MTT assay relative to DMSO; assay type: functional
PC-3 [28] = test: Antiproliferative activity against human PC3 cells after 120 hrs by MTT assay; assay type: functional, cell-based; conditions: PC-3, 120 h
A549 = test: Antiproliferative activity against human A549 cells after 120 hrs by MTT assay; assay type: functional, cell-based; conditions: A549, 120 h
MIA PaCa-2 = test: Antiproliferative activity against human MIAPaCa2cells after 120 hrs by MTT assay; assay type: functional, cell-based; conditions: MIA PaCa-2, 120 h
LoVo = test: Antiproliferative activity against human LoVo cells after 120 hrs by MTT assay; assay type: functional, cell-based
[29] = Antiproliferative activity against human U87MG cells after 120 hrs by MTT assay; assay type: functional, cell-based, U-87MG ATCC; conditions: U-87 MG
PC-3 [30] = test: Antiproliferative activity against human PC3 cells at 1 uM after 120 hrs by MTT assay relative to DMSO; assay type: functional
PC-3 [31] = test: Antiproliferative activity against human PC3 cells at 10 ng/ml after 120 hrs by MTT assay relative to DMSO; assay type: functional
PC-3 [32] = test: Antiproliferative activity against human PC3 cells at 20 uM after 120 hrs by MTT assay relative to DMSO; assay type: functional

## N#Cc1ccc(C(c2ccc(C#N)cc2)n2cncn2)cc1 [LETROZOLE]
PC-3 [1]
  fold change (FC): 1.001

## C[C@H]1CCC/C=C/[C@@H]2C[C@H](O)C[C@H]2[C@H](O)/C=C/C(=O)O1 [BREFELDIN A]
PC-3 [2]
  fold change (FC): 0.245

## COC1=C2C[C@@H](C)C[C@H](OC)[C@H](O)[C@@H](C)/C=C(\C)[C@H](OC(N)=O)[C@@H](OC)/C=C\C=C(/C)C(=O)NC(=CC1=O)C2=O [GELDANAMYCIN]
HEK293 [3]
  inhibition: Active
PC-3 [4]
  fold change (FC): 0.261

## CC(=O)O[C@H]1C(=O)[C@@]2(C)[C@H]([C@H](OC(=O)c3ccccc3)[C@]3(O)C[C@H](OC(=O)[C@H](O)[C@@H](NC(=O)c4ccccc4)c4ccccc4)C(C)=C1C3(C)C)[C@]1(OC(C)=O)CO[C@@H]1C[C@@H]2O [PACLITAXEL]
PC-3 [4]
  fold change (FC): 0.281

## Cc1[nH]c(=O)c(C#N)cc1-c1ccncc1 [MILRINONE]
PC-3 [5]
  fold change (FC): 1.015

## CN(CCOc1ccc(CC2SC(=O)NC2=O)cc1)c1ccccn1 (configuration not stated) [ROSIGLITAZONE]
PC-3 [6]
  fold change (FC): 0.925

## CCOC(=O)C(C)(C)Oc1ccc(Cl)cc1 [CLOFIBRATE]
PC-3 [7]
  fold change (FC): 1.021
[8]
  Activity: Active
[9]
  Activity: Active
[10]
  Activity: Active
[11]
  Activity: Active
Cofilin-1 (Homo sapiens) [12]
  Activity: Active
[13]
  inhibition: Active

## CC[C@H](C)[C@H](NC(=O)[C@H](Cc1ccc(O)cc1)NC(=O)[C@@H](NC(=O)[C@H](CCCNC(=N)N)NC(=O)[C@@H](N)CC(=O)O)C(C)C)C(=O)N[C@@H](Cc1cnc[nH]1)C(=O)N1CCC[C@H]1C(=O)N[C@@H](Cc1ccccc1)C(=O)O [ANGIOTENSIN II]
PC-3 [14]
  fold change (FC): 1.018

## C=C1C[C@@H]2[C@H](CC[C@]3(C)C(=O)CC[C@@H]23)[C@@]2(C)C=CC(=O)C=C12 [EXEMESTANE]
PC-3 [1]
  fold change (FC): 0.975

## O=C1CCC(N2C(=O)c3ccccc3C2=O)C(=O)N1 (configuration not stated) [THALIDOMIDE]
PC-3 [15]
  fold change (FC): 0.992

## CC(C)OC(=O)C(C)(C)Oc1ccc(C(=O)c2ccc(Cl)cc2)cc1
[8]
  Activity: Active
[9]
  Activity: Active
[10]
  Activity: Active
[11]
  Activity: Active
Cofilin-1 (Homo sapiens) [12]
  Activity: Active
[13]
  inhibition: Active

## CCCC[C@@H](C=O)NC(=O)[C@H](CC(C)C)NC(=O)[C@H](CC(C)C)NC(C)=O (Ac-Leu-Leu-[Nle]-aldehyde)
PC-3 [16]
  fold change (FC): 0.26
HEK293 [17]
  inhibition: Active
HEK293 [18]
  inhibition: Active
HEK293 [19]
  inhibition: Active
HEK293 [20]
  inhibition: Active
HEK293 [21]
  inhibition: Active
Cofilin-1 (Homo sapiens) [22]
  Activity: Active

## CN[C@H]1CC[C@@H](c2ccc(Cl)c(Cl)c2)c2ccccc21 [SERTRALINE]
PC-3 [23]
  fold change (FC): 0.226
[9]
  Activity: Active
[10]
  Activity: Active
[11]
  Activity: Active
Cofilin-1 (Homo sapiens) [12]
  Activity: Active
Cofilin-1 (Homo sapiens) [24]
  inhibition: Active

## O=c1c(-c2ccc(O)cc2)coc2cc(O)cc(O)c12 [GENISTEIN]
PC-3 [25]
  fold change (FC): 1.074

## C=CCNC1=C2C[C@@H](C)C[C@H](OC)[C@H](O)[C@@H](C)/C=C(\C)[C@H](OC(N)=O)[C@@H](OC)/C=C\C=C(/C)C(=O)NC(=CC1=O)C2=O (stereo in doubt) [TANESPIMYCIN]
HEK293 [3]
  inhibition: Active
PC-3 [26]
  fold change (FC): 0.264

## CN(CCOc1ccc(C[C@H](Nc2ccccc2C(=O)c2ccccc2)C(=O)O)cc1)c1ccccn1
PC-3 [27]
  fold change (FC): 0.956

## C=C(C)[C@H]1Cc2c(ccc3c2O[C@@H]2COc4cc(OC)c(OC)cc4[C@@H]2C3=O)O1 [ROTENONE]
PC-3 [14]
  fold change (FC): 0.548
[9]
  Activity: Active
[10]
  Activity: Active
[11]
  Activity: Active
Cofilin-1 (Homo sapiens) [12]
  Activity: Active

## O=C(Nc1ccc([N+](=O)[O-])cc1Cl)c1cc(Cl)ccc1O [NICLOSAMIDE]
PC-3 [28]
  IC50: 400 nM
A549
  IC50: 400 nM
MIA PaCa-2
  IC50: 1100 nM
LoVo
  IC50: 700 nM
[29]
  IC50: 400 nM
PC-3 [30]
  fold change (FC): 0.408

## COc1cc2ncnc(Nc3cccc(Br)c3)c2cc1OC
PC-3 [5]
  fold change (FC): 0.983

## CCC(=C/[C@H](C)C/C=C/C(C)=C/[C@@H](C)C(=O)[C@@H](C)[C@H](O)[C@@H](C)C/C(C)=C/C(=O)O)/C=C/[C@@H]1OC(=O)C=C[C@@H]1C [LEPTOMYCIN B]
PC-3 [31]
  fold change (FC): 0.262

## COc1cccc(-c2cc(=O)c3ccccc3o2)c1N
PC-3 [32]
  fold change (FC): 0.901

## CC(C)C[C@@H](C=O)NC(=O)[C@H](CC(C)C)NC(=O)[C@H](CC(C)C)NC(=O)OCc1ccccc1 [MG-132] (Cbz-Leu-Leu-Leu-aldehyde)
PC-3 [30]
  fold change (FC): 0.255
HEK293 [17]
  inhibition: Active
HEK293 [18]
  inhibition: Active
HEK293 [19]
  inhibition: Active
HEK293 [20]
  inhibition: Active
HEK293 [21]
  inhibition: Active
Cofilin-1 (Homo sapiens) [22]
  Activity: Active

## CC1(COc2ccc(CC3SC(=O)NC3=O)cc2)CCCCC1 (configuration not stated) [CIGLITAZONE]
PC-3 [6]
  fold change (FC): 0.934
